In patent US20020019378A1, “COMPOUNDS” (priority 1997, published 2002):
pEC50: −log10 of the molar value. Where two headings read alike, the source gives them in different places.

Assays:
[1] = molecular target: T1, Human Glucocorticoid Receptor (Homo sapiens, UniProt P04150); test: Functional in vitro glucocorticoid activity assay: Hela cells stably transfected with sPAP reporter gene under MMTV LTR promoter; assay type: cell-based; conditions: 72 hours incubation, values given as 'less than (about)', read-out: EC50 (sPAP transcription, glucocorticoid activity)
T1 construct: endogenous in cells; host or cells: HeLa cells stably transfected with an MMTV-LTR sPAP reporter
T1 sequence (P04150 1-777): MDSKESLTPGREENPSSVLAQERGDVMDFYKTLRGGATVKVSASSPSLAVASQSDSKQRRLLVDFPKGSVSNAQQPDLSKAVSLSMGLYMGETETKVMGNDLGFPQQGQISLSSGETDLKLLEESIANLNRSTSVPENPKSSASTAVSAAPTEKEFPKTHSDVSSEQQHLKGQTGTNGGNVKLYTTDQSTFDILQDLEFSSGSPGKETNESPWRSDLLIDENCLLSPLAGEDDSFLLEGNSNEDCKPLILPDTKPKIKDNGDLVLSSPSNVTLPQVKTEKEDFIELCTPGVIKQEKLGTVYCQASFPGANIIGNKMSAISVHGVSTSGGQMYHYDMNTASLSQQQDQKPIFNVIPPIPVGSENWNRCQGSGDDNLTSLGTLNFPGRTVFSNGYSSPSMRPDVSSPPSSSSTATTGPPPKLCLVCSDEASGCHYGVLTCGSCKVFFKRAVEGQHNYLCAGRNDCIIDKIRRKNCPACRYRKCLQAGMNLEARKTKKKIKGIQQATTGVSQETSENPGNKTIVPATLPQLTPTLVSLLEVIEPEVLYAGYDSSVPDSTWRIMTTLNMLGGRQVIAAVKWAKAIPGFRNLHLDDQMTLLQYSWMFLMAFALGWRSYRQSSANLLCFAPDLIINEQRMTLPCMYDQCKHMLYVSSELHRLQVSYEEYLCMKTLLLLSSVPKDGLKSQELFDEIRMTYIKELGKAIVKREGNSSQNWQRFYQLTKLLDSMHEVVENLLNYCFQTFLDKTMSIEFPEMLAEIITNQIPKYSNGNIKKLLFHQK
From the text: The functional assay used was a modification of the method described by T. S Berger et al, of J. of Steroid Biochem. Molec. Biol. 1992, 41 (3-8), 733-738, “Interaction of Glucocorticoid analogues with the Human Glucocorticoid Receptor”. Thus, Hela cells were stably transfected with a detectable reporter gene (secreted placental alkaline phosphatase, sPAP) under the control of a glucocorticoid response promoter (the LTR of the mouse mammary tumour virus, MMTV). Various concentrations of standard (dexamethasone) or compounds of the invention were incubated with transfected Hela cells for 72 hours. At the end of the incubation, substrate ([…]) for sPAP was added and the product measured by a spectrophotometric method. Increased absorbance reflected increased sPAP transcription and concentration-response lines were constructed such that EC50-values could be estimated.

human serum paraoxonase = human serum paraoxonase (Homo sapiens, UniProt P27169); test: Hydrolysis by human serum paraoxonase (enzymatic hydrolysis test method); assay type: in vitro ADME; conditions: 5% bovine serum albumin, 20 mM CaCl2, 37° C.
Procedure: The compounds herein have relatively short half-lives in blood in vitro. A test method for determining the half-life of the compounds under defined enzymatic hydrolysis conditions in vitro is now described. The test method is believed to provide a suitable indicator as to effects in vivo. In the test method, the hydrolysis of test compounds by a lactonase enzyme is monitored using RP HPLC with UV detection.
The ‘enzymatic hydrolysis test method’ is as follows: Incubations are carried out in 1 ml volumes in an aqueous medium containing 5% bovine serum albumin in the presence of 20 mM CaCl2. The solutions are preincubated at 37° C. for 5 minutes before the addition of the test compound (5 μl of a 5 mg/ml solution in DMSO) and then lactonase enzyme (10 μl to the 1 ml incubations). Control incubations containing no enzyme are also included. The enzymatic hydrolysis is monitored by removal of aliquots and quenching the reaction by the addition of an equal volume of acetonitrile. The samples are vortex mixed, then centrifuged and the supernatants are transferred to autosampler vials for HPLC analysis.
In a suitable HPLC procedure, aliquots (20 μl) of the supernatants are injected onto a Zorbax Rx C8 column (250×4.6mm; Hichrom). The column is maintained at 40° C. and eluted at a flow rate of 1.0 mL/min with a mobile phase of acetonitrile: 50 mM ammonium formate (65:35) adjusted to pH 4.2 with formic acid. Detection is by UV absorbance at 240 nm, and chromatographic peak areas for both parent and metabolite are measured.
In a preferred aspect, the half-life of each compound may be determined by a method in which peak areas are plotted against time on a log-linear scale, and the half lives determined by extrapolation or interpolation of a straight line joining two points.
The above described ‘enzymatic hydrolysis test method’ employs lactonase enzyme. Suitable forms of lactonase enzyme include human serum paraoxonase or a recombinant form thereof, or purified lactonase, obtained from human plasma as described hereinafter. Purification of human serum paraoxonase is described by C E Furlong et al, Chem.Biol.Interactions, Vol 87, p35-48, (1993) and recombinant human serum paraoxonase is described in International Patent application No. WO 96/01322
The susceptibility to hydrolysis by human serum paraoxonase of certain of the compounds of the Examples was assessed using the test protocol of the ‘enzymatic hydrolysis test method’ described herein.

[2] = system: lactonase enzyme purified from human plasma; assay type: biochemical; conditions: for Restoration of lactonase activity in the presence of EDTA and EGTA: salt added at 100 mM
Procedure: The enzyme activity purified according to A. above was tested with classical inhibitors in order to establish to which enzyme family it belongs. Also, it was investigated whether a divalent cation was required as a co-factor, as disclosed in W. N. Fishbein et al, Journal of Biological Chemistry 1966, 241(21), 4835-4841.

[3] = Stability in human plasma test method; assay type: in vitro ADME; conditions: 37° C.
Procedure: The stability of various of the compounds of the Examples in human plasma was tested using the following ‘stability in human plasma’ test method: 500 μl aliquots of human plasma in screw capped polypropylene tubes were preincubated at 37° C. in a waterbath for 5 minutes. The plasma samples were then spiked with 5 μl of test compound (nominally 5 mg/ml in DMSO). Aliquots (100 μl ) were removed immediately and after 5 minutes and mixed with an equal volume of acetonitrile. The samples were centrifuged and the supernatants were transferred to autosampler vials for HPLC and half-life analysis.
In the HPLC procedure, aliquots (20 μl) of all the supernatants were injected onto a Zorbax Rx C8 column (250×4.6mm; Hichrom). The column was maintained at 40° C. and eluted at a flow rate of 1.0 mL/min with a mobile phase of acetonitrile: 50 mM ammonium formate (65:35) adjusted to pH 4.2 with formic acid. Detection was by UV absorbance at 240 nm, and chromatographic peak areas for both parent and metabolite were measured
To determine the half-life, for each compound peak areas were plotted against time on a log-linear scale, and the half lives determined by extrapolation or interpolation of a straight line joining two points.

human serum paraoxonase, sequence (P27169 whole entry): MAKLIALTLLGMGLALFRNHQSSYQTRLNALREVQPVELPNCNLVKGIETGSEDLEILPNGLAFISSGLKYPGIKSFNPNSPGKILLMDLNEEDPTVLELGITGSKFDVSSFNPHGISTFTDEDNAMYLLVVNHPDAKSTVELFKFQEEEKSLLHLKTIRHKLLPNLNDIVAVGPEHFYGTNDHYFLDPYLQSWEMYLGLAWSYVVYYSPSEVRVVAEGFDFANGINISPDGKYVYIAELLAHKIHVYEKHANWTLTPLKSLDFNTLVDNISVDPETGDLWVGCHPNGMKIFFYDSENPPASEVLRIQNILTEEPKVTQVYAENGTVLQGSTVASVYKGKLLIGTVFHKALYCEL

Structure (SMILES): CCC(=O)O[C@]1(C(=O)SCC2CCOC2=O)[C@H](C)C[C@H]2[C@@H]3C[C@H](F)C4=CC(=O)C=C[C@]4(C)[C@@]3(F)[C@@H](O)C[C@@]21C (single isomer, unassigned) [Example 2, 6α,9α-Difluoro-11β-hydroxy-16α-methyl-3-oxo-17α-propionyloxy-androsta-1,4-diene-17β-carbothioic acid S-(2-oxo-tetrahydro-furan-3-ylmethyl) ester]
- pEC50 [1]: > 6.60

Structure (SMILES): CCC(=O)OC1(C(=O)SC2COC(=O)O2)C(C)CC2C3CC(F)C4=CC(=O)C=CC4(C)C3(F)C(O)CC21C (single isomer, unassigned) [Example 7 isomer A, 6α,9α-Difluoro-11β-hydroxy-16α-methyl-3-oxo-17α-propionyloxy-androsta-1,4-diene-17β-carbothioic acid S-(2-oxo-1,3-dioxolan-4-yl) ester]
- pEC50 [1]: > 6.30
- Hydrolysis by human serum paraoxonase (human serum paraoxonase): hydrolysed

Structure (SMILES): CCC(=O)OC1(C(=O)OC2COC(=O)O2)C(C)CC2C3CC(F)C4=CC(=O)C=CC4(C)C3(F)C(O)CC21C (single isomer, unassigned; isomer a) [Example 9 isomer A, 6α,9α-Difluoro-11β-hydroxy-16α-methyl-3-oxo-17α-propionyloxy-androsta-1,4-diene-17β-carboxylic acid O-(2-oxo-1,3-dioxolan-4-yl) ester]
- Hydrolysis by human serum paraoxonase (human serum paraoxonase): hydrolysed

Structure (SMILES): [Ca+2].[Cl-].[Cl-] [CaCl2]
- Restoration of lactonase activity in the presence of EDTA and EGTA [2]: fully restored

Structure (SMILES): O=C(O)CN(CCN(CC(=O)O)CC(=O)O)CC(=O)O [EDTA]
- Inhibition of lactonase activity [2]: totally inhibited

Structure (SMILES): O=C(O)CN(CCOCCOCCN(CC(=O)O)CC(=O)O)CC(=O)O [EGTA]
- Inhibition of lactonase activity ([2]; inhibitor at 1 mM): totally inhibited

Structure (SMILES): C[C@@H]1C[C@H]2[C@@H]3C[C@H](F)C4=CC(=O)C=C[C@]4(C)[C@@]3(F)[C@@H](O)C[C@]2(C)[C@]12OC(=O)SC2=O [Example 1, 6α,9α-Difluoro-11β-hydroxy-16α-methyl-17-spiro[androsta-1,4-diene-17,5′-[1,3]oxathiolane]-2′,3,4′-trione]
- pEC50 [1]: > 6.60

Structure (SMILES): CSC(=O)[C@@]1(OC(=O)CSC2COC(=O)C2)[C@H](C)C[C@H]2[C@@H]3C[C@H](F)C4=CC(=O)C=C[C@]4(C)[C@@]3(F)[C@@H](O)C[C@@]21C (stereo partly drawn) [Example 3, 6α,9α-Difluoro-11β-hydroxy-16α-methyl-3-oxo-17α-(2-oxo-tetrahydro-furan-4-ylsulfanyl-acetoxy)-androsta-1,4-diene-17β-carbothioic acid methyl ester]
- pEC50 [1]: > 6.60
- half-life at 49.5 µg/mL [3]: < 10 min
- Hydrolysis by human serum paraoxonase (human serum paraoxonase): hydrolysed

Structure (SMILES): C[C@]12C=CC(=O)C=C1CC[C@H]1[C@@H]3C[C@H]4CC(=O)O[C@@]4(C(=O)CO)[C@@]3(C)C[C@H](O)[C@@]12F [Example 5, 9α-Fluoro-11β,17α,21-trihydroxy-3,20-dioxo-pregna-1,4-diene-16α-acetic acid γ-lactone]
- pEC50 [1]: > 6.60

Structure (SMILES): CCC(=O)O[C@]1(C(=O)SCc2oc(=O)oc2C)[C@H](C)C[C@H]2[C@@H]3C[C@H](F)C4=CC(=O)C=C[C@]4(C)[C@@]3(F)[C@@H](O)C[C@@]21C [Example 10, 6α,9α-Difluoro-11β-hydroxy-16α-methyl-3-oxo-17α-propionyloxy-androsta-1,4-diene-17β-carbothioic acid S-(5-methyl-2-oxo-1,3-dioxol-4-ylmethyl) ester]
- pEC50 [1]: > 6.30
- half-life at 49.5 µg/mL [3]: < 10 min

Structure (SMILES): CCC(=O)OC1(C(=O)OCc2oc(=O)oc2C)C(C)CC2C3CC(F)C4=CC(=O)C=CC4(C)C3(F)C(O)CC21C (stereo not drawn) [Example 12, 6α,9α-Difluoro-11β-hydroxy-16α-methyl-3-oxo-17α-propionyloxy-androsta-1,4-diene-17β-carboxylic acid O-(5-methyl-2-oxo-1,3-dioxol-4-ylmethyl) ester]
- Hydrolysis by human serum paraoxonase (human serum paraoxonase): hydrolysed

Structure (SMILES): [Cl-].[Cl-].[Mg+2] [MgCl2]
- Restoration of lactonase activity in the presence of EDTA and EGTA [2]: not restored

Structure (SMILES): CNC(=O)Oc1ccc2c(c1)[C@]1(C)CCN(C)[C@@H]1N2C [eserine]
- Inhibition of lactonase activity ([2]; inhibitor at 50 mM): not inhibited

Structure (SMILES): O=C(O)c1cc[c]([Hg][Cl])cc1 [p-chloromercuribenzoate (PCMB), p-chloromercuribenzoate]
- Inhibition of lactonase activity ([2]; inhibitor at 1 mM): slightly inhibited

Structure (SMILES): O=S(=O)(F)Cc1ccccc1 [phenylmethylsulphonyl fluoride (PMSF), phenylmethylsulphonyl fluoride]
- Inhibition of lactonase activity ([2]; inhibitor at 10 mM): not inhibited

Structure (SMILES): O=S(=O)([O-])[O-].[Zn+2] [zinc sulphate]
- Inhibition of lactonase activity ([2]; inhibitor at 1 mM): totally inhibited
